Columns and labels:
[1] = system: primary rat adipocytes; assay: Lipogenesis in rat adipocytes; type: cell-based
Method: Lipogenesis in Rat Adipocytes
As a measure of in vitro potency of the insulins of the invention, lipogenesis can be used. Primary rat adipocytes are isolated from the epididymale fat pads and incubated with 3H-glucose in buffer containing e.g. 1% fat free HSA and either standard (human insulin, HI) or insulin of the invention. The labelled glucose is converted into extractable lipids in a concentration dependent way, resulting in full concentration response curves. The result is expressed as relative potency (%) with 95% confidence limits of insulin of the invention compared to standard (HI).

[2] = molecular target: T1, PCSK9 (Homo sapiens, UniProt Q8NBP7); assay: PCSK9-LDL-R binding competitive ELISA; conditions: apparent binding affinity
T1 construct: purchased BioSite/BPSBioscience (PCSK9); R & D systems (rhLDL-R) 71304 (PCSK9); 2148-LD (rhLDL-R); host or cells: rhLDL-R: NSO-derived

[3] = system: HepG2 cells; assay: LDL uptake assay in HepG2 cells in the presence of PCSK9; type: cell-based, human; conditions: PCSK9 10 ug/mL
[4] = molecular target: T2, human insulin receptor (IR), solubilised human IR-A (Homo sapiens, UniProt P06213); assay: Insulin receptor affinity on solubilised receptors, competition binding SPA, 0% HSA; conditions: Table 3, example numbers, binding affinity relative to human insulin
T2 construct: baby hamster kidney (BHK) cells overexpressing the IR-A holoreceptor; made in house; host or cells: baby hamster kidney (BHK) cells overexpressing IR-A; detergent-solubilised, WGA semipurified

[5] = molecular target: T2, human insulin receptor (IR), solubilised human IR-A; assay: Insulin receptor affinity SPA, related assay with 1.5% HSA in binding buffer; conditions: Table 3, example numbers, binding affinity relative to human insulin
[6] = in vivo
[7] = Table 3, example numbers, potency relative to human insulin
[8] = Table 4, labels are comparator compound numbers, relative to human insulin
[9] = Table 5, example numbers, Ki converted from IC50
[10] = Table 6, labels are comparator compound numbers

Substance	Lipogenesis 1% HSA (% rel to HI) [1, 7]	Lipogenesis 1% HSA (% rel to HI) [1, 8]	also measured
EGF(A)(301L, 309R, 312E, 321E)-[GAQP]2-Insulin(B3E, B29K(eicosanedioyl-gGlu-2×OEG), desB30) [Example 6]	0.06 % rel to HI	0.06 % rel to HI	Ki [2, 9]: 2.49 nM
EGF(A)(301L, 309R, 312E, 321E)-[GAQP]2-Insulin(B3E, B29K(hexadecanedioyl-gGlu-2×OEG), desB30) [Example 1]	0.49 % rel to HI	0.14 % rel to HI	–
EGF(A)(301L, 309R, 312E, 321E)-[GAQP]2-Insulin(B3E, B29K(octadecanedioyl-gGlu-2×OEG), desB30) [Example 3]	0.16 % rel to HI	0.06 % rel to HI	–
EGF(A)(301L, 309R, 312E, 321E)-[GAQP]2-Insulin(B3E, B29K(octadecanedioyl-gGlu-OEG), desB30) [Example 5]	–	0.44 % rel to HI	–
EGF(A)(301L, 309R, 312E, 321E)-[GAQP]2-Insulin(B29K(eicosanedioyl-gGlu-2×OEG), desB30) [Example 7]	–	0.18 % rel to HI	Ki [2, 10]: 1.74 nM
EGF(A)(301L, 309R, 312E, 321E)-[GAQP]2-Insulin(B29K(octadecanedioyl-gGlu-2×OEG), desB30) [Example 4]	0.13 % rel to HI	0.07 % rel to HI	–
EGF(A)(301L, 309R, 312E, 321E)-[GAQP]3-Insulin(A14E, B29K(octadecanedioyl-gGlu-2×OEG), desB30) [Example 10]	0.12 % rel to HI	–	EC50 [3, 10]: 152 nM
EGF(A)(301L, 309R, 312E, 321E)-[GAQP]4-Insulin(A14E, B29K(octadecanedioyl-gGlu-2×OEG), desB30) [Example 11]	0.12 % rel to HI	–	–
EGF(A)(301L, 309R, 312E, 321E)-[GAQP]4-Insulin(B29K(octadecanedioyl-gGlu-2×OEG), desB30) [Example 12]	0.14 % rel to HI	–	–
EGF(A)(301L, 309R, 312E, 321E)-[GAQP]6-Insulin(A14E, B29K(eicosanedioyl-gGlu-2×OEG), desB30 [Example 16]	0.08 % rel to HI	–	hIR-A 0% HSA (% rel to HI) [4]: 4.77 % rel to HI; hIR-A 1.5% HSA (% rel to HI) [5]: 0.26 % rel to HI; Ki [2, 9]: 1.75 nM
EGF(A)(301L, 309R, 312E, 321E)-[GAQP]6-Insulin(A14E, B29K(octadecanedioyl-gGlu-2×OEG), desB30) [Example 13]	0.11 % rel to HI	–	hIR-A 0% HSA (% rel to HI) [4]: 5.53 % rel to HI; hIR-A 1.5% HSA (% rel to HI) [5]: 0.35 % rel to HI; Ki [2, 9]: 1.92 nM; EC50 ([3]; Table 5, example numbers): 170 nM; Rat iv Mean Residence Time MRT [6]: 13.56 h
EGF(A)(301L, 309R, 312E, 321E)-[GAQP]6-Insulin(A14E, B29K(octadecanedioyl-gGlu-OEG), desB30) [Example 15]	0.08 % rel to HI	–	hIR-A 0% HSA (% rel to HI) [4]: 5.70 % rel to HI; hIR-A 1.5% HSA (% rel to HI) [5]: 0.23 % rel to HI; Ki [2, 9]: 2.07 nM
EGF(A)(301L, 309R, 312E, 321E)-[GAQP]6-Insulin(B29K(octadecanedioyl-gGlu-2×OEG), desB30) [Example 14]	0.10 % rel to HI	–	–
EGF(A)(301L, 309R, 312E, 321E)-[GAQP]10-Insulin(B29K(octadecanedioyl-gGlu-2×OEG), desB30) [Example 2]	–	0.06 % rel to HI	–
EGF(A)(301L, 309R, 312E, 321E)-[GAQP]12-Insulin(B29K(octadecanedioyl-gGlu-2×OEG), desB30) [Example 18]	0.09 % rel to HI	–	–
EGF(A)(301L, 309R, 312E, 321E)-[GAQP]13-Insulin(B29K(octadecanedioyl-gGlu-2×OEG), desB30) [Example 9]	0.12 % rel to HI	–	–
EGF(A)(301L, 309R, 312E, 321E)-[GAQP]19-Insulin(A14E, B29K(eicosanedioyl-gGlu-2×OEG), desB30) [Example 23]	0.02 % rel to HI	–	hIR-A 0% HSA (% rel to HI) [4]: 2.89 % rel to HI; hIR-A 1.5% HSA (% rel to HI) [5]: 0.14 % rel to HI; EC50 ([3]; Table 5, example numbers): 126 nM
EGF(A)(301L, 309R, 312E, 321E)-[GAQP]19-Insulin(B29K(eicosanedioyl-gGlu-2×OEG), desB30) [Example 22]	0.06 % rel to HI	–	–
EGF(A)(301L, 309R, 312E, 321E)-[GAQP]19-Insulin(B29K(octadecanedioyl-gGlu-2×OEG), desB30) [Example 19]	0.09 % rel to HI	–	–
EGF(A)(301L, 309R, 312E, 321E)-[GAQP]119-Insulin(A14E, B29K(octadecanedioyl-gGlu-2×OEG), desB30) [Example 20]	0.03 % rel to HI	–	EC50 ([3]; Table 5, example numbers): 123 nM
EGF(A)(301L, 309R, 312E, 321E)-[GAQP]119-Insulin(B3E, B29K(eicosanedioyl-gGlu-2×OEG), desB30) [Example 24]	0.06 % rel to HI	–	–
EGF(A)(301L, 309R, 312E, 321E)-[GAQP]119-Insulin(B3E, B29K(octadecanedioyl-gGlu-2×OEG), desB30) [Example 21]	0.07 % rel to HI	–	–
EGF(A)(301L, 309R, 312E, 321E)-[GQAP]2-Insulin(B29K(octadecanedioyl-gGlu-2×OEG), desB30) [Example 8]	0.14 % rel to HI	0.30 % rel to HI	–

— patent publication US11649269B2, “Bifunctional compounds comprising insulin peptides and EGF(A) peptides” (Novo Nordisk A/S, priority 2018, dated 2023)
